Data reported in US4999372A, “New aminochromanol compounds” (ADIR et Compagnie, priority 1988, dated 1991).
Where two headings read alike, the source gives them in different places. One block for each molecule: values may come before it.

What was measured:
aorta of the rat [1] = test: Relaxation of rat aortic rings contracted by potassium depolarisation (KCl); assay type: cell-based; conditions: rat aorta rings without endothelium
Procedure: (§1) Male Wistar rats (325-375 g) are anaesthetised i.p. using sodium pentobarbital (30 mg/kg). The thoracic aorta and the mesenteric portal vein are removed. The aorta is dissected into rings 3 mm long and the endothelium is removed mechanically.
(§2) The organs are placed in a 20 ml thermostatically controlled vessel containing a physiological solution composed of (mM): NaCl 112; KCl 5; KH2 PO4 1; MgSO4 1.2; CaCl2 2.5; NaHCO3 25; glucose 11.5; EDTA 0.1; pH: 7.4; 37° C.; 95% O2 +5% CO2.
(§3) The initial force applied is 2 g in the case of the aorta and 0.5 g in the case of the portal vein. The variations in force are measured by a STATHAM sensor connected to a transducer amplifier (GOULD) and are monitored continuously on a GOULD 2400 graphic recorder.
(§4) The experimental protocols are as follows: After a stabilisation period of 90 minutes, the aortic rings are subjected to various tests:
potassium depolarisation:
The preparations are exposed to a 30 mM or 80 mM KCl (and 87 and 37 mM NaCl, respectively) hyperpotassium medium; after 30 minutes' stabilisation of contraction, cumulative concentrations of the product to be tested are added every 15 minutes. The relaxation values obtained allow the IC50 s to be calculated.
(§5) The products are used in a form dissolved in water or a suitable solvent.
(§6) The concentrations expressed refer to the final concentrations in terms of base in the isolated organ baths.

aorta of the rat [2] = test: Reactivity of rat aortic rings to 4-aminopyridine (4 AP); assay type: cell-based; conditions: 4 AP 5 mM
Procedure: as §1, §2, §3, §4
reactivity to 4-aminopyridine (4 AP)
The product to be tested, at a given concentration, or its solvent, is incubated in the normal physiological solution 15 minutes before the addition of the 4 AP (5 mM).
The maximum amplitudes of the responses to the 4 AP in the presence of the product or the solvent are compared.
as §5, §6

[3] = test system: spontaneously hypertensive rat (SHR); test: Arterial pressure in the conscious spontaneously hypertensive rat (SHR), oral; assay type: in vivo
Procedure: The study is carried out on SHR male rats (Charles River) weighing from 260 g to 330 g and aged from 18 to 20 weeks. A polyethylene catheter is positioned at the level of the abdominal aorta and tunnelised at the level of the neck under anaesthesia (ketamine hydrochloride 150 mg/kg intraperitoneally). The animals, placed in movement-restraining cages, are tested in the conscious state at least 48 hours after intervention. The arterial pressure, measured by a STATHAM P23 pressure sensor connected to the abdominal catheter, is registered on a GOULD 2400 recorder. […] The doses administered are expressed in mg/kg of base.
The results obtained with a certain number of representative products of the invention and a reference product, CROMAKALIM, are grouped in the following Table. The variations in systolic and diastolic arterial pressure (PAS and PAD) presented at the most significant times after treatment are expressed as percentage variation with respect to the control values.

[4] = test system: conscious renally hypertensive dog; test: Arterial pressure in the conscious renally hypertensive dog; assay type: in vivo; conditions: gastric intubation, 0.1 mg/kg
Procedure: Mongrel dogs weighing from 20 to 25 kg are used. A silastic catheter positioned under anaesthesia (sodium pentobarbital 30 mg/kg i.v.) at the level of the abdominal aorta and left over a prolonged period permits the later measurement of the arterial pressure in the conscious animals. Arterial hypertension is induced by a second intervention under anaesthesia consisting in a constriction of the left renal artery using a clip, which reduces its rate of flow by approximately 70%, the left kidney is enveloped in a latex capsule and the contralateral kidney is left in place.
The systolic and diastolic arterial pressures (PAS and PAD) are measured using a STATHAM P23 pressure sensor connected to the silastic catheter and linked to a GOULD pressure amplifier. The products are tested on the animals, which have become hypertensive, in the conscious state, at least one week after the second intervention. The arterial pressure is monitored continuously on an ES1000 GOULD recorder until 7 hours have elapsed after the treatment and then until 24 hours have elapsed.
The products to be tested are administered via the digestive system, after gastric intubation, in a form dissolved in water or a suitable solvent. The doses administered are expressed in mg of base with respect to body weight.
The representative products of the invention were compared with the reference product (CROMAKALIM). The variations in the systolic and diastolic arterial pressures (PAS and PAD), presented at the most significant times after treatment, are expressed as percentage variation with respect to the control values.

anaesthetised dog = test: Haemodynamic study in the anaesthetised dog (vascular resistances), i.v.; assay type: in vivo
Procedure: A complete haemodynamic study was carried out on mongrel dogs weighing from 25 to 30 kg, which were anaesthetised with sodium pentobarbital 30 mg/kg i.v., intubated and ventilated and subjected to a thoracotomy at the 5th left intercostal space. The measurement of the […] is carried out using electromagnetic rings positioned at the level of the ascending aorta and the circumflex branch of the left coronary artery, respectively, and connected to GOULD SP 2202 electromagnetic flow meters. The aortic pressure is measured by a MILLAR probe introduced via the femoral artery.
The total peripheral vascular resistance values (TPR) and the mean coronary vascular resistance values (CVRM) are calculated by the ratio between the mean aortic pressure and the mean cardiac output and the mean coronary output, respectively. The products tested were injected via the femoral vein in a form dissolved in water or a suitable solvent.
The evolution of the vascular resistances, expressed as percentage variation with respect to the control values, is presented as a function of time in the following Table.

[5] = Rattus norvegicus, 80 mM KCl, read-out: IC50 (M) KCl 80 mM

IC50 (aorta of the rat [1]; Rattus norvegicus, 30 mM KCl, read-out: IC50 (M) KCl 30 mM): 4.2e-07 M
IC50 (aorta of the rat [1]; [5]): > 0.0001 M
Compound: CC1(C)Oc2ccc(C#N)cc2[C@@H](N2CCCC2=O)[C@@H]1O (relative stereo) [CROMAKALIM, reference compound]
% inhibition of the response to 4AP (aorta of the rat [2]; product 10^-5 M): 74%
% inhibition of the response to 4AP (aorta of the rat [2]; product 10^-7 M): 13%
Variation (%) of PAD after treatment ([3]; 0.3 mg/kg, 1 H): -26 ± 3%
Variation (%) of PAS after treatment ([3]; 0.3 mg/kg, 1 H): -21 ± 3%
Variation (%) of PAD after treatment ([3]; 0.3 mg/kg, 3 H): -7 ± 5%
Variation (%) of PAS after treatment ([3]; 0.3 mg/kg, 3 H): -5 ± 4%
Variation (%) of PAD after treatment ([3]; 0.3 mg/kg, 6 H): -3 ± 1%
Variation (%) of PAS after treatment ([3]; 0.3 mg/kg, 6 H): -1 ± 2%
Variation (%) of PAD after treatment ([3]; 0.3 mg/kg, 30 min): -34 ± 2%
Variation (%) of PAS after treatment ([3]; 0.3 mg/kg, 30 min): -29 ± 2%
Variation (%) of PAD after treatment ([3]; 1.0 mg/kg, 1 H): -33 ± 3%
Variation (%) of PAS after treatment ([3]; 1.0 mg/kg, 1 H): -23 ± 4%
Variation (%) of PAD after treatment ([3]; 1.0 mg/kg, 3 H): -25 ± 4%
Variation (%) of PAS after treatment ([3]; 1.0 mg/kg, 3 H): -19 ± 3%
Variation (%) of PAD after treatment ([3]; 1.0 mg/kg, 6 H): -20 ± 2%
Variation (%) of PAS after treatment ([3]; 1.0 mg/kg, 6 H): -15 ± 2%
Variation (%) of PAD after treatment ([3]; 1.0 mg/kg, 30 min): -44 ± 4%
Variation (%) of PAS after treatment ([3]; 1.0 mg/kg, 30 min): -34 ± 5%
Variation (%) of PAD after treatment ([4]; 1 H): -23%
Variation (%) of PAS after treatment ([4]; 1 H): -26%
Variation (%) of PAD after treatment ([4]; 3 H): -9%
Variation (%) of PAS after treatment ([4]; 3 H): -9%
Variation (%) of PAD after treatment ([4]; 7 H): -5%
Variation (%) of PAS after treatment ([4]; 7 H): +2%
Variation (%) of PAD after treatment ([4]; 24 H): +18%
Variation (%) of PAS after treatment ([4]; 24 H): +9%
Variation (%) of PAD after treatment ([4]; 30 min): -46%
Variation (%) of PAS after treatment ([4]; 30 min): -50%
Variation (%) of CVRM after treatment (anaesthetised dog; 10 μg/kg, 1 min): -69.0%
Variation (%) of TPR after treatment (anaesthetised dog; 10 μg/kg, 1 min): -26.8%
Variation (%) of CVRM after treatment (anaesthetised dog; 10 μg/kg, 10 min): -38.1%
Variation (%) of TPR after treatment (anaesthetised dog; 10 μg/kg, 10 min): -15.5%
Variation (%) of CVRM after treatment (anaesthetised dog; 10 μg/kg, 30 min): -27.4%
Variation (%) of TPR after treatment (anaesthetised dog; 10 μg/kg, 30 min): -7.8%

IC50 (aorta of the rat [1]; [5]): > 0.0001 M
IC50 (aorta of the rat [1]; 30 mM KCl, listed as Ex. 1 Form A, read-out: IC50 (M) KCl 30 mM): 7.7e-06 M
Compound: CC1(C)Oc2ccc(C#N)cc2C(N2C(=O)CC[C@H]2CO)C1O (single isomer, unassigned) [Example 1 form A, 3R,4S- or 3S,4R-trans-2,2-dimethyl-3-hydroxy-4-(2-oxo-5S-hydroxymethyl-1-pyrrolidinyl)-6-cyanochroman]
% inhibition of the response to 4AP (aorta of the rat [2]; product 10^-5 M, listed as Ex. 1 Form A): 35%
Variation (%) of CVRM after treatment (anaesthetised dog; 300 μg/kg, 1 min): -81.5%
Variation (%) of TPR after treatment (anaesthetised dog; 300 μg/kg, 1 min): -41.9%
Variation (%) of CVRM after treatment (anaesthetised dog; 300 μg/kg, 10 min): -50.3%
Variation (%) of TPR after treatment (anaesthetised dog; 300 μg/kg, 10 min): -17.2%
Variation (%) of CVRM after treatment (anaesthetised dog; 300 μg/kg, 30 min): -34.9%
Variation (%) of TPR after treatment (anaesthetised dog; 300 μg/kg, 30 min): -12.9%
